Source: publication PMC11401813, “Grewiifopenes A–K, bioactive clerodane diterpenoids from Casearia grewiifolia Vent” (Natural Products and Bioprospecting, 2024)
Values after ≈ are worked out from the molar mass of the structure shown.

Key:
[1] = test system: MOLT-3 (acute lymphoblastic leukemia); assay: Cytotoxicity, XTT method, MOLT-3; assay type: cell-based; conditions: Homo sapiens; MOLT-3 cell line; XTT; mean ± s.d. (n = 3); read-out: IC50, MOLT-3
Description: (§1) The in vitro cytotoxicity assay toward a panel of human cancer cell lines of several clerodane diterpenoids has been well investigated. Thus, the isolates in adequate amounts were tested against MOLT-3 (acute lymphoblastic leukemia), HuCCA-1 (cholangiocarcinoma), HepG2 (hepatocellular carcinoma), A549 (lung adenocarcinoma), HeLa (cervical carcinoma), and MDA-MB-231 (triple negative breast cancer) cancer cell lines using the MTT and XTT methods. Doxorubicin and etoposide were used as positive controls.
(§2) The MTT (3-(4,5-dimethylthiazol-2-yl)-2,5-diphenyltetrazolium bromide) assay was employed for the cytotoxic evaluation against five human cancer cell lines, including HepG2, A549, MDA-MB-231, HeLa, and HuCCA-1, while the XTT (2,3-bis-(2-methoxy-4-nitro-5-sulphenyl)-(2H)-tetrazolium-5-carboxanilide) method was used for MOLT-3 cancer cell.

[2] = test system: HuCCA-1 (cholangiocarcinoma); assay: Cytotoxicity, MTT assay, HuCCA-1; assay type: cell-based, human; conditions: Homo sapiens, HuCC-A1, HuCCA-1 cell line; MTT; mean ± s.d. (n = 3); read-out: IC50, HuCCA-1
Description: as §1, §2

[3] = test system: A549 (lung adenocarcinoma); assay: Cytotoxicity, MTT assay, A549; assay type: cell-based, human; conditions: Homo sapiens, A549, A549 cell line, mean ± s.d. (n = 3)
Description: as §1, §2

[4] = test system: HeLa (cervical carcinoma); assay: Cytotoxicity, MTT assay, HeLa; assay type: cell-based, human; conditions: HeLa cell line, MTT, mean ± s.d. (n = 3); for IC50: Homo sapiens, HeLa, read-out: IC50, HeLa
Description: as §1, §2

[5] = test system: MDA-MB-231 (triple negative breast cancer); assay: Cytotoxicity, MTT assay, MDA-MB-231; assay type: cell-based, human; conditions: Homo sapiens, MDA-MB-231, MDA-MB-231 cell line; MTT; mean ± s.d. (n = 3); read-out: IC50, MDA-MB-231
Description: as §1, §2

[6] = test system: HepG2 (hepatocellular carcinoma); assay: Cytotoxicity, MTT assay, HepG2; assay type: cell-based, human; conditions: Homo sapiens, HepG2, HepG2 cell line; MTT; mean ± s.d. (n = 3); read-out: IC50, HepG2
Description: as §1, §2

[7] = test system: Staphylococcus aureus (ATCC 6538); assay: Antibacterial broth microdilution (MIC/MBC), S. aureus; assay type: cell-based; conditions: ATCC6538
Description: (§3) In addition, the isolates were also evaluated for their antibacterial activity towards three strains including Bacillus cereus (ATCC 11778), Staphylococcus aureus (ATCC 6538) and Staphylococcus epidermidis (ATCC 12228) using penicillin G and gentamicin as the antibiotic controls (Table 5). […] Finally, the inhibitory activity of aromatase by using a CYP19 screening kit was investigated. The aromatase (also called estrogen synthase) is responsible for converting the non-aromatic ring A of androgens to estrogens, which are related to the proliferation of breast cancer cells.
(§4) The tested strains, Staphylococcus aureus (S. aureus) ATCC6538, Staphylococcus epidermidis (S. epidermidis) ATCC12228, and Bacillus cereus (B. cereus) ATCC11778 were obtained from the American Type Culture Collection (ATCC).
(§5) All tested species were grown on Mueller Hinton Agar (MHA) and incubated at 37 °C for 18–24 h. The bacterial colonies suspension in sterile normal saline was diluted until they reached a 1 × 10^6 CFC/mL concentration, which was then compared to the McFarland scale. This step provided a standard bacterial suspension (1 × 10^6 CFU/mL), which was used for the following assays.
(§6) The broth microdilution technique was used for the MIC and MBC determination, which was expressed according to Clinical and Laboratory Standards Institute (CLSI) standard M07 guideline. The compounds were prepared as a stock solution by dissolving in dimethyl sulfoxide (DMSO) with the concentration ranging from 0.195 to 200 µg/mL. DMSO and penicillin G or gentamicin were used as normal and standard drug control. […] Three replicates were performed for each experiment.

[8] = test system: Staphylococcus epidermidis (ATCC 12228); assay: Antibacterial broth microdilution (MIC/MBC), S. epidermidis; assay type: cell-based; conditions: ATCC12228
Description: as §3, §4, §5, §6

[9] = test system: Bacillus cereus (ATCC 11778); assay: Antibacterial broth microdilution (MIC/MBC), B. cereus; assay type: cell-based; conditions: Bacillus cereus, ATCC11778
Description: as §3, §4, §5, §6

aromatase (CYP19) = biological target: T1, aromatase (CYP19) (Homo sapiens, UniProt P11511); assay: Aromatase (CYP19) inhibition assay; assay type: biochemical; conditions: for inhibition at 12.5 µM: at a concentration of 12.5 µM; for Aromatase inhibitory activity (in words): at the concentration up to 12.15 µM
T1 construct: purchased
T1 sequence (P11511 1-503): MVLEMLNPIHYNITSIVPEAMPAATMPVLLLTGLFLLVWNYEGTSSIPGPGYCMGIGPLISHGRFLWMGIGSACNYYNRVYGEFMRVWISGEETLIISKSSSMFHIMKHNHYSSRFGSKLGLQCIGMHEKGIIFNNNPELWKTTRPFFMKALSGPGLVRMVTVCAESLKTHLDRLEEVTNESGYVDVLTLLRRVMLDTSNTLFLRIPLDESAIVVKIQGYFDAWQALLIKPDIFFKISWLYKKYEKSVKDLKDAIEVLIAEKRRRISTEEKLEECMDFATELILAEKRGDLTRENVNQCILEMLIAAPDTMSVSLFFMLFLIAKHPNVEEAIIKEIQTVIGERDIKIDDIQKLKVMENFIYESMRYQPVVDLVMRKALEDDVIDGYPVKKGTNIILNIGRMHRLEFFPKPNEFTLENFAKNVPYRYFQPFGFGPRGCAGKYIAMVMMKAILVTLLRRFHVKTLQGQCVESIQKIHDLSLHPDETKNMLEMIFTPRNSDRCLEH
Description: as §3
The aromatase assay used a method previously designed by Stresser and co-workers.

| SMILES | IC50 [1] | IC50 [2] | IC50 [3] | IC50 [4] | IC50 [5] | IC50 [6] | MBC [7] | MIC [7] | MBC [8] | MIC [8] | MBC [9] | MIC [9] | inhibition at 12.5 µM (aromatase (CYP19)) | Aromatase inhibitory activity (in words) (aromatase (CYP19)) | IC50, HeLa [4] |
| --- | --- | --- | --- | --- | --- | --- | --- | --- | --- | --- | --- | --- | --- | --- | --- |
| C=CC(=C)CC[C@]1(C)[C@H](C)[C@@H](OC(C)=O)[C@H](OC)[C@@]23C(=C[C@H](OC(=O)CC(C)C)C[C@@H]12)[C@@H](OC(C)=O)O[C@H]3OC(C)=O [Compound 2, Grewiifopene B] | 2.7 ± 0.4 µM | 8.7 ± 1.1 µM | 7.8 ± 0.5 µM | 8.8 ± 0.9 µM | 9.3 ± 0.4 µM | 37.1 ± 4.1 µM | > 200 µg/mL | > 200 µg/mL | > 200 µg/mL | > 200 µg/mL | > 200 µg/mL | 100 µg/mL (≈ 169 µM) | – | – | – |
| C=CC(=C)CC[C@]1(C)[C@H](C)[C@@H](OC(C)=O)[C@H](OC(C)=O)[C@@]23C(=C[C@H](OC(=O)CC(C)C)C[C@@H]12)[C@@H](OC(C)=O)O[C@H]3OC(C)=O [Compound 3, Grewiifopene C] | 2.7 ± 0.3 µM | 3.9 ± 0.2 µM | 5.1 ± 1.1 µM | 5.3 ± 0.1 µM | 8.4 ± 0.1 µM | 13.2 ± 0.5 µM | > 200 µg/mL | > 200 µg/mL | > 200 µg/mL | > 200 µg/mL | > 200 µg/mL | > 200 µg/mL | 15% | did not show activity | – |
| C=CC(=C)CC[C@]1(C)[C@H](C)C[C@H](OC)[C@@]23C(=C[C@H](OC(=O)[C@@H](C)CC)C[C@@H]12)[C@@H](OC(C)=O)O[C@H]3OC(C)=O [Compound 5, corymbulosin N] | 3.4 ± 0.4 µM | 5.3 ± 0.1 µM | 5 ± 0.9 µM | 5.6 ± 0.3 µM | 8.7 ± 0.2 µM | 10 ± 0.5 µM | – | – | – | – | – | – | 18% | did not show activity | – |
| C=CC(=C)CC[C@]1(C)[C@H](C)C[C@H](OC)[C@@]23C(=C[C@H](OC(=O)C(C)C)C[C@@H]12)[C@@H](OC(C)=O)O[C@H]3OC(C)=O [Compound 6, corymbulosin K] | 3.2 ± 0.2 µM | 5.6 ± 1.2 µM | 5.8 ± 0.8 µM | 7.3 ± 0.3 µM | 10.2 ± 0.6 µM | 11.8 ± 1.1 µM | – | – | – | – | – | – | – | – | – |
| C=CC(=C)CC[C@]1(C)[C@H](C)C[C@H](OC)[C@@]23C(=C[C@H](OC(=O)CC(C)C)C[C@@H]12)[C@@H](OC)O[C@H]3OC(C)=O [Compound 10, kurzipene A] | 5 ± 1.4 µM | 7.5 ± 0.2 µM | 8.2 ± 0.8 µM | 10.7 ± 0.6 µM | 10.4 ± 0.2 µM | 13 ± 1 µM | > 200 µg/mL | > 200 µg/mL | > 200 µg/mL | > 200 µg/mL | 12.5 µg/mL (≈ 24.8 µM) | 12.5 µg/mL (≈ 24.8 µM) | – | – | – |
| C=CC(=C)CC[C@]1(C)[C@H](C)[C@@H](OC(=O)CC(C)C)[C@H](O)[C@@]23C(=C[C@H](OC(=O)CC(C)C)C[C@@H]12)[C@@H](OC(C)=O)O[C@H]3OC(C)=O [Compound 12, Grewiifopene E] | 1.7 ± 0.4 µM | 4.4 ± 0.4 µM | 3.6 ± 0.04 µM | 3.8 ± 0.6 µM | 7.6 ± 0.9 µM | 8.9 ± 0.3 µM | – | – | – | – | – | – | 0% | did not show activity | – |
| C=CC(=C)CCC1(C)C(C)C(OC(=O)C=Cc2ccc(O)cc2)C(O)C23C(=CC(OC(=O)CC(C)C)CC12)C(OC)OC3OC(C)=O (stereo not drawn) [Compound 13, Grewiifopene F] | 3.7 ± 1 µM | 41.4 ± 6.1 µM | 30.6 ± 3.9 µM | – | 37 ± 5.1 µM | 44.2 ± 4.4 µM | – | – | – | – | – | – | – | – | I^a (Inactive for cytotoxicity with < 50% inhibition at a concentration of 50 µg/mL) |
